Results reported in patent publication US20090130229A1, “Antitumor uses of compound” (Cell Therapeutics, Inc., priority 2002, published 2009).

Columns and labels:
[1] = system: NIH3T3^MEN2A(C634R) cells; test: Antiproliferative assay (Coulter Counter), NIH3T3 MEN2A(C634R) versus parental NIH3T3; assay type: cell-based, murine; conditions: 72 h, dose-response curves
Description: FIG. 1. Effects of Cpd 1 on NIH3T3^MEN2A(C634R) transfectants expressing exogenous RET/MEN2A(C634R). […] Cells were exposed to 6 μM Cpd1 for 24 h and then photographed under a phase-contrast microscope (original magnification ×100). B) Antiproliferative effect. NIH3T3^MEN2A(C634R) cells and the parental NIH3T3 cells were treated with increasing concentrations of the drug for 72 h and then counted with a Coulter Counter. […] C) Inhibition of Ret/MEN2A(C634R) autophosphorylation and expression. Cells were treated with solvent (−) or 10 μM Cpd1 (+), for the indicated times. Whole cell-lysates were prepared and subjected to SDS-PAGE and Western blotting with anti-pTyr antibody. After stripping, the filter was reblotted with anti-Ret antibody. Arrows indicate the partial and fully glycosilated forms of the Ret/MEN2A receptor.
Cells were trypsinized after 3 days (NIH3T3 and NIH3T3 M12A cells) or 7 days (MTC cells) of treatment with Cpd1 and counted by a Coulter Counter (Coulter Electronics, Luton U.K.). The concentrations able to inhibit cell proliferation by 50% (IC50) were calculated from the dose-response curves. Each experiment was performed in duplicate

Ret/MEN2A(C634W) = target: T1, Ret/MEN2A(C634W) (Homo sapiens, UniProt P07949, C634W); test: Ret autophosphorylation and expression in TT cells (Western blotting); assay type: cell-based; conditions: 24 h
T1 construct: endogenous in cells; host or cells: TT (human medullary thyroid carcinoma)
T1 sequence (P07949 29-1114 C634W): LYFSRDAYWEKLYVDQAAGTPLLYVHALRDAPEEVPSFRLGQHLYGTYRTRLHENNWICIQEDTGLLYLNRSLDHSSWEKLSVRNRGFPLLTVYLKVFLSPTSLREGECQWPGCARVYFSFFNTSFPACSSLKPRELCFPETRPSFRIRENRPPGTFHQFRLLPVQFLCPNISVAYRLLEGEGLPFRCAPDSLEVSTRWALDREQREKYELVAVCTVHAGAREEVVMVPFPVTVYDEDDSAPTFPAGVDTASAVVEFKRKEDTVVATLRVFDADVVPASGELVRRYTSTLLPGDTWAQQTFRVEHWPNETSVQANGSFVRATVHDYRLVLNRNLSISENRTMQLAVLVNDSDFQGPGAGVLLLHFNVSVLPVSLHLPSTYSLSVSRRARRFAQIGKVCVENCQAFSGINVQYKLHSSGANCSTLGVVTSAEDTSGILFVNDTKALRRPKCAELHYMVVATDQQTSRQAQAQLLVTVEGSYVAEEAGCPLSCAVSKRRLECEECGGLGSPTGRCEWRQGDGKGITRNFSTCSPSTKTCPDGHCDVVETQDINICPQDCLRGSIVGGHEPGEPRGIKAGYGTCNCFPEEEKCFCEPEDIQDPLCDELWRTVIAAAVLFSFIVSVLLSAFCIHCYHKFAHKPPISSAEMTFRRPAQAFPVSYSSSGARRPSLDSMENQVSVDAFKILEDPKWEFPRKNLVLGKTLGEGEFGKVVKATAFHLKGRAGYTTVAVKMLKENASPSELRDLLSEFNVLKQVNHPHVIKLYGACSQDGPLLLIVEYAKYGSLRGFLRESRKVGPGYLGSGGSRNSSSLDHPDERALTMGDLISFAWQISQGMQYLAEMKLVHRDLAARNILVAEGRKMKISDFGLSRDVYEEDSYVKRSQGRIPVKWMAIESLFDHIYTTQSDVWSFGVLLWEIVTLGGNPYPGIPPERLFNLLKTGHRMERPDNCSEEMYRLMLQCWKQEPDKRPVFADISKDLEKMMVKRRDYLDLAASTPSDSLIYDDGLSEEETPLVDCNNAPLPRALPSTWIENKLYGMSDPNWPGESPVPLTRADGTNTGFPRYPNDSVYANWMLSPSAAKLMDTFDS
Description: FIG. 2. Effects of Cpd1 on human MTC cell lines harboring MEN2-associated RET mutants. A) Inhibition of Ret autophosphorylation. TT and MZ-CRC-1 cells, expressing respectively RET/MEN2A(C634W) and RET/MEN2B(M918T), were treated with the indicated concentrations of Cpd1, for 24 h. Control cells (C) received the solvent. Whole cell extracts were processed for Western blotting and probed with anti-pTyr and anti-Ret antibodies. […] B) Antiproliferative effect. TT and MZ-CRC-1 cells were treated with increasing concentrations of Cpd 1 for 7 days and then counted with a Coulter Counter.
The following human medullary thyroid carcinoma (MTC) cell lines were used in this study. The TT cell line derived from a MEN2A-associated MTC characterized by expression of the RET oncogene carrying the mutation C634W. […]
For whole-cell extract preparation, cells were lysed in sodium dodecyl sulfate (SDS) sample buffer (62.5 mM Tris-HCl (pH 6.8), 2% SDS) with 1 mM PMSF, 10 μg/ml pepstatin, 12.5 μg/ml leupeptin, 100 KIU aprotinin, 1 mM sodium orthovanadate, 1 mM sodium molybdate. Protein concentration was determined in appropriately diluted aliquots by the bicinchionic acid (BCA) method (Pierce, Rockford, Ill.), then samples were adjusted to a final concentration of 10% glycerol, 5% β-mercaptoethanol, 0.001% bromophenol blue. […]

PDGF-R = PDGF-R autophosphorylation and expression in whole cells (2N5A, Swiss 3T3); assay type: cell-based, mouse
Description: FIG. 5. Inhibition of PDGF-R autophosphorylation and expression in whole cells by Cpd 1. A): 2N5A cells (NIH3T3 transformed by the COL1A1/PDGFB rearrangement generating autocrine stimulation of PDGF-R) were treated with Cpd 1 at the indicated concentrations, for 72 h. Cell extracts were immunoprecipitated with anti-PDGF-R and subjected to Western blotting with anti-pTyr or anti-PDGF-R antibodies. B): Swiss 3T3 cells were serum starved for 24 h and then treated with Cpd1 at the indicated concentrations, for 18 h. After stimulation with 1 nM PDGF for 5 min, whole cell lysates were prepared and subjected to Western blotting with anti-pTyr or anti-PDGF-R. Protein loading by anti-actin blot is shown.
The following human medullary thyroid carcinoma (MTC) cell lines were used in this study. The TT cell line derived from a MEN2A-associated MTC characterized by expression of the RET oncogene carrying the mutation C634W. The MZ-CRC-1 cell line derived from MEN2B-associated MTC characterized by expression of the RET oncogene carrying the mutation M918T. TT cells were cultivated in Ham's F12 medium (BioWhittaker, Verviers, Belgium) supplemented with 15% fetal calf serum (FCS) (Life Technologies, Inc., Gaithersburg, Md.) whereas MZ-CRC-1 cells were grown in Dulbecco's modified Eagle's medium (DMEM) (BioWhittaker) supplemented with 10% FCS. The human papillary thyroid carcinoma cell line TPC-1 which was used as a model of Met overexpression, was routinely cultivated in DMEM with 10% FCS. N592 cells, derived from a human SCLC, were characterized by Kit activation through autocrine stimulation by the SCF ligand. N592 cells were cultured in RPMI 1640 supplemented with 10% FCS. The mouse SWISS3T3 and NIH3T3 fibroblasts were cultured in DMEM with 10% calf serum (Colorado Serum Company, Denver, Colo.). In addition, NIH3T3 cells transfected with different oncogenes were used. NIH3T3^MEN2A transfectants express the short isoform of the RET-MEN2A (C634R) oncogene; NIH3T3^KITΔ559 cells express KIT carrying the activating mutation Δ559 found in GISTs; NIH3T3^FGFR3(Y373C) express the FGF-R3 gene carrying the activating mutation Y373C found in a human multiple myeloma cell line. 2N5A cells are NIH3T3 cells-transformed by the COL1A1/PDGFB rearrangement generating autocrine stimulation of PDGF-R. All NIH3T3 transfectants were maintained in DMEM plus 5% calf serum in a 10% CO2 atmosphere.
For whole-cell extract preparation, cells were lysed in sodium dodecyl sulfate (SDS) sample buffer (62.5 mM Tris-HCl (pH 6.8), 2% SDS) with 1 mM PMSF, 10 μg/ml pepstatin, 12.5 μg/ml leupeptin, 100 KIU aprotinin, 1 mM sodium orthovanadate, 1 mM sodium molybdate. Protein concentration was determined in appropriately diluted aliquots by the bicinchionic acid (BCA) method (Pierce, Rockford, Ill.), then samples were adjusted to a final concentration of 10% glycerol, 5% β-mercaptoethanol, 0.001% bromophenol blue.
For immunoprecipitation experiments, cells were treated with Cpd1 or solvent for the indicated times. Cell monolayers were rinsed twice with cold phosphate-buffered saline plus 0.1 mM sodium orthovanadate and then left for 20 min on ice in lysis buffer (50 mM HEPES pH7.6, 150 mM NaCl, 10% glycerol, 1% Triton X-100, 1.5 mM MgCl2, 1 mM EGTA, 100 mM NaF, 10 mM sodium pyrophosphate, 10 μg/ml antipain, 20 μg/ml chymostatin, 10 μg/ml E64, 1 mg/ml pefabloc SC). […] Protein concentration was determined by the BCA reagent (Pierce). […]

Structure (SMILES): COc1cc2c(cc1OC)/C(=C\c1ccc(O)cc1)C(=O)N2 [Cpd 1, (E)-1,3-dihydro-5,6-dimethoxy-3-[(4-hydroxyphenyl)methylene]-2H-indol-2-one]
- Antiproliferative effect, sensitivity relative to parental NIH3T3 cells [1]: higher sensitivity
- Tyrosine phosphorylation of Ret receptor (Ret/MEN2A(C634W)): dose-dependent inhibition
- Ret receptor expression (Ret/MEN2A(C634W); highest concentrations): reduced expression
- PDGF-R tyrosine phosphorylation (PDGF-R; 2N5A cells (autocrine stimulation), 72 h): dose-dependent drug-induced inhibition
- PDGF-R expression (PDGF-R; 2N5A cells, 72 h): dose-dependent drug-induced inhibition
- PDGF-R tyrosine phosphorylation (PDGF-R; Swiss 3T3 cells serum starved, 18 h, 1 nM PDGF 5 min): dose-dependent drug-induced inhibition
- PDGF-R expression (PDGF-R; Swiss3T3 cells, 18 h): dose-dependent drug-induced inhibition
- Concentration causing full inhibition of PDGF-R phosphorylation (PDGF-R; whole cells (FIG. 5)): higher than 15 μM
